This note sets out measurements from ChEMBL document CHEMBL1130217, “Use of a pharmacophore model for the design of EGF-R tyrosine kinase inhibitors: 4-(phenylamino)pyrazolo[3,4-d]pyrimidines” (J Med Chem, 1997).

As usually defined, the IC50 is the concentration at which inhibition is half-maximal. High values mean a need for much substance, low ones inhibition by little substance.

Experiment [1] concerns the target T1, Epidermal growth factor receptor (Homo sapiens, UniProt P00533).
Description: Inhibitory activity against epidermal growth factor receptor tyrosine kinase.
A further experiment deals with Balb/MK. The experiment can be described thus: Inhibition of proliferation of EGF-dependent BALB/MK cells. In kind it is functional, cell-based. Conditions: Mus musculus.
The target in experiment [2] is Proto-oncogene tyrosine-protein kinase Src (Homo sapiens, UniProt P12931). As to the kind of experiment: Inhibitory activity against c-Src tyrosine kinase.
Sequence of Proto-oncogene tyrosine-protein kinase Src (P12931 2-536 limits assumed): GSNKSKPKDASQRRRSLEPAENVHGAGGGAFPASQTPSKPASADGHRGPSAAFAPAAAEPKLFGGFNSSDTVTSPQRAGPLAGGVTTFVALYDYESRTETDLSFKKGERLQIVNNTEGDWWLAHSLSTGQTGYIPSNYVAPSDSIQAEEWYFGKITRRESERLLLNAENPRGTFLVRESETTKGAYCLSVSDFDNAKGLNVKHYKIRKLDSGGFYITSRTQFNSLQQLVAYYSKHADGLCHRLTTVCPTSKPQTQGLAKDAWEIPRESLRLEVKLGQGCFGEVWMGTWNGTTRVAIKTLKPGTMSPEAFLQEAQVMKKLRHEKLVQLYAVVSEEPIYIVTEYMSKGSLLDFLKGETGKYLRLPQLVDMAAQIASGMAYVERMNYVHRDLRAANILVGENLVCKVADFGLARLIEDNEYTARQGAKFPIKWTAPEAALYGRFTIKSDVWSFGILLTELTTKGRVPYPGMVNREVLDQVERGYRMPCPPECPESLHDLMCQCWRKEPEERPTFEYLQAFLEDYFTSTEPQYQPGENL
Experiment [3] deals with Tyrosine-protein kinase ABL1 (Homo sapiens, UniProt P00519).
Sequence of Tyrosine-protein kinase ABL1 (P00519 whole entry, looked up): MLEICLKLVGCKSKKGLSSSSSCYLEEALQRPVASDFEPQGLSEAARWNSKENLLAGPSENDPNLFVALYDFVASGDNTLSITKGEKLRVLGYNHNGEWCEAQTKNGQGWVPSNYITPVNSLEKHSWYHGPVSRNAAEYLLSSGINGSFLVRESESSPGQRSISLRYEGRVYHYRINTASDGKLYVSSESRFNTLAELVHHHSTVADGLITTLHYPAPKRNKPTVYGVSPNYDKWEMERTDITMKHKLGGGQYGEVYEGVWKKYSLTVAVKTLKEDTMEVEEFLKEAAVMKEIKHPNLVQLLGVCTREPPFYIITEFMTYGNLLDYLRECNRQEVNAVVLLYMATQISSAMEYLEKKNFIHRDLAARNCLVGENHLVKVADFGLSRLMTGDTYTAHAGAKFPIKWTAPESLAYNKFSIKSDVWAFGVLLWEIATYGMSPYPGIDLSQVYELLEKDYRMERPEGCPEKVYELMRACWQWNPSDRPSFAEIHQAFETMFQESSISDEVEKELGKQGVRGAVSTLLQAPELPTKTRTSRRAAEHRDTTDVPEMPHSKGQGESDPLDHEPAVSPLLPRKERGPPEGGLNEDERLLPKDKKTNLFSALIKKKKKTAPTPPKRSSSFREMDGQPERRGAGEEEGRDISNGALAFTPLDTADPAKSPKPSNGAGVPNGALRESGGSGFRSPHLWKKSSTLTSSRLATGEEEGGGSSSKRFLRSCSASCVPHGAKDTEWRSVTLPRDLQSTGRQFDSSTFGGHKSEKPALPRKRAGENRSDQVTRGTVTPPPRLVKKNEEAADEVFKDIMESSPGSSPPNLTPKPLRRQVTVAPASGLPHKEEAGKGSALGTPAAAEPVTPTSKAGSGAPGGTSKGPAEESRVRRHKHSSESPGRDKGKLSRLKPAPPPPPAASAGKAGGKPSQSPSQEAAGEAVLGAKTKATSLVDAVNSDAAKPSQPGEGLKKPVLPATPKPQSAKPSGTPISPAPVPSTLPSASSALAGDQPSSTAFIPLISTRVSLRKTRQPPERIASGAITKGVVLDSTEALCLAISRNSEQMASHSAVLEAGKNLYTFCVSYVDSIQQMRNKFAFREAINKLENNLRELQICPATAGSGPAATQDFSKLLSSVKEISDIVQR
Description: Inhibitory activity against v-Abl tyrosine kinase
Experiment [4] concerns the target Cyclin-dependent kinase 1 (Homo sapiens, UniProt P06493). As to the kind of experiment: Inhibitory activity against CDK1 Ser/Thr kinase.
Experiment [5] has as its target T1, Epidermal growth factor receptor. As to the kind of experiment: Inhibition of EGF-stimulated tyrosine phosphorylation in A431 cells.
Experiment [6] has as its target Protein kinase C alpha type (Homo sapiens, UniProt P17252). As to the kind of experiment: Inhibitory activity against protein kinase C alpha […] kinase.
Experiment [7] addresses Platelet-derived growth factor receptor (Homo sapiens, UniProt P09619+P16234). The experiment can be described thus: Inhibition of PDGF stimulated tyrosine phosphorylation in BALB/c3t3 cells.

T1 sequence (P00533 whole entry): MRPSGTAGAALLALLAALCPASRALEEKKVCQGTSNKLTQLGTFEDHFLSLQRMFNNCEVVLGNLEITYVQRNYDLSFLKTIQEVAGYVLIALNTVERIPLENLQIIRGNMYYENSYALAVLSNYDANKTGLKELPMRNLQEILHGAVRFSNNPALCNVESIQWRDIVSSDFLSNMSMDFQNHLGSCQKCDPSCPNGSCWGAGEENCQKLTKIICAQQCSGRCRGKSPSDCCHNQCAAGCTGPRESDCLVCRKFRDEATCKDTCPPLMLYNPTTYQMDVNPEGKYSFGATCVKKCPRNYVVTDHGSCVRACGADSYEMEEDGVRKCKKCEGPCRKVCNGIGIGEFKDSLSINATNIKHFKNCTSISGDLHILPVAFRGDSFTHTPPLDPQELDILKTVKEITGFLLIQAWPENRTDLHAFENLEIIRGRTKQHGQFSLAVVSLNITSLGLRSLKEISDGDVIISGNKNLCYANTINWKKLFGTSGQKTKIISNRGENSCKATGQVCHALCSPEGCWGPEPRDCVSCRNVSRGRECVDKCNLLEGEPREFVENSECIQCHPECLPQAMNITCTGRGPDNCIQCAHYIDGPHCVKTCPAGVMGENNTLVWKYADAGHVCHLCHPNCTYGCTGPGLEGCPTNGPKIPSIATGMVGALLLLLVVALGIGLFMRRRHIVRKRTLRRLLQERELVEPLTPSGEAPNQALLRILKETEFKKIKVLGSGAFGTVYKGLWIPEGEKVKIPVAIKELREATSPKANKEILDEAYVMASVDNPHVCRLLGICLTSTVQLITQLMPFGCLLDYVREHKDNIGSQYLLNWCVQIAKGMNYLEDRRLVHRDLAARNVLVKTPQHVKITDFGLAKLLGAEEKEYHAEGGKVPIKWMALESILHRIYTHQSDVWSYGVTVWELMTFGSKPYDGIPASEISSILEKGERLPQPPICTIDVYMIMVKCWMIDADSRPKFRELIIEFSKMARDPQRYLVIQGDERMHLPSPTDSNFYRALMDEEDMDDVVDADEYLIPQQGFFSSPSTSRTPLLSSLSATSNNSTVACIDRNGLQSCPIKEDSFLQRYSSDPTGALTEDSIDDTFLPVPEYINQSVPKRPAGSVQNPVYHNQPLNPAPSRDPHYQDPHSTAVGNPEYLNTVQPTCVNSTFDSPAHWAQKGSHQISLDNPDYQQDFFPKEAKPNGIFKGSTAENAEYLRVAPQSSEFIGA
Sequence of Cyclin-dependent kinase 1 (P06493 whole entry): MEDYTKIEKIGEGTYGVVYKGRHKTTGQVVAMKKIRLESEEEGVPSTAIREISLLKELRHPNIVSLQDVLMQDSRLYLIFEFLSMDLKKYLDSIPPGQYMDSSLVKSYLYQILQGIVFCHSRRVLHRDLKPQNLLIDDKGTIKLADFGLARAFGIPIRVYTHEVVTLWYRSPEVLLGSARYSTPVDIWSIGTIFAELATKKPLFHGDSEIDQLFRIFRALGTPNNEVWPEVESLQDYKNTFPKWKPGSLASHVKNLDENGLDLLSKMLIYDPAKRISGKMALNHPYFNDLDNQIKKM

On to `Oc1cccc(-c2[nH]nc3ncnc(Nc4cccc(Cl)c4)c23)c1`, for which the IC50 is 26 nM in experiment [1]; 990 nM in the experiment on Balb/MK; 2 nM in experiment [2]; 180 nM in experiment [3]; 200 nM in experiment [4]; 1500 nM in experiment [5]. In addition, the IC50 in experiment [6] and in experiment [7] was more than 10000 nM each time.
Regarding `Nc1ccc(Nc2[nH]nc3ncnc(Nc4cccc(Cl)c4)c23)cc1`, the IC50 in experiment [2] is 2400 nM; in experiment [3], 1180 nM; in experiment [4], more than 1000 nM; in experiment [6], more than 1000 nM; in experiment [7], more than 10000 nM.
For the molecule `Nc1[nH]cnc2nnc(Nc3cccc(Cl)c3)c1-2`, the IC50 in experiment [1] amounted to 160 nM; in the experiment on Balb/MK, 14000 nM; in experiment [2], 6000 nM; in experiment [3], 410 nM; in experiment [5], 35000 nM; in experiment [6] it was 24000 nM. In addition, the IC50 in experiment [7] is more than 10000 nM.
As to `c1ccc(Nc2ncnc3n[nH]c(Nc4ccccc4)c23)cc1`, the IC50 in experiment [1] was determined as 58 nM; in the experiment on Balb/MK it was 8400 nM; in experiment [2], 75000 nM; in experiment [3] it was 1960 nM; in experiment [5], 12000 nM; in experiment [6], 6900 nM. The IC50 in experiment [7] is more than 10000 nM.
`Cc1c(C)n(C)c2ncnc(Nc3cccc(Cl)c3)c12` showed an IC50 in experiment [1] of 450000 nM.
Same read-out and setting: as for `Cc1c(C)n(-c2ccccc2)c2ncnc(N)c12`, the figure is 2710 nM.
With `COc1cccc(CNc2[nH]nc3ncnc(Nc4cccc(Cl)c4)c23)c1`, the IC50 in experiment [1] is 8 nM; with Balb/MK it was 810 nM; in experiment [2] it was more than 10000 nM; in experiment [3], 3500 nM; in experiment [4], 3100 nM; in experiment [5], 200 nM. For the same molecule, the IC50 is more than 100000 nM in experiment [6] and more than 10000 nM in experiment [7].
Molecule `Nc1ncnc2c1cnn2-c1ccccc1` gave an IC50 in experiment [1] of 2700 nM.
Regarding `COc1ccc(-c2[nH]nc3ncnc(Nc4cccc(Cl)c4)c23)cc1`, the IC50 was 96 nM in experiment [1]; 1600 nM in the experiment on Balb/MK; more than 10000 nM in experiment [2]; 16500 nM in experiment [3]; more than 100000 nM in experiment [4]; 1500 nM in experiment [5]. The IC50 in experiment [6] and in experiment [7] was more than 10000 nM each time.
`Nc1nc(N)c2c(Nc3cccc(Cl)c3)[nH]nc2n1`: the IC50 in experiment [1] turned out to be 220 nM; in the experiment with Balb/MK it was 2870 nM; in experiment [2] it was 6000 nM; in experiment [3], 410 nM; in experiment [5], 9000 nM; in experiment [6] it was 24000 nM. In experiment [7], this molecule registered a half-inhibitory concentration (IC50) of more than 10000 nM.
Regarding `CN(C)c1ccc(Nc2[nH]nc3ncnc(Nc4cccc(Cl)c4)c23)cc1`, the IC50 is 29 nM in experiment [1]; 1550 nM with Balb/MK; more than 10000 nM in experiment [2]; more than 10000 nM in experiment [3]; 350 nM in experiment [4]; 1500 nM in experiment [5]. Moreover, the IC50 in experiment [6] is 2900 nM; in experiment [7], 10000 nM.
For the molecule `CC(C)(C)OC(=O)Nc1ccc(Nc2[nH]nc3ncnc(Nc4cccc(Cl)c4)c23)cc1`, the IC50 was more than 10000 nM in experiment [1]; more than 10000 nM in the experiment on Balb/MK; more than 10000 nM in experiment [2]; more than 10000 nM in experiment [3]; 57000 nM in experiment [4]; more than 100000 nM in experiment [5]. The IC50 in experiment [6] and in experiment [7] was more than 10000 nM throughout.
As for `COc1cc2ncnc(Nc3cccc(Br)c3)c2cc1OC`, the IC50 in the experiment with Balb/MK is 200 nM; in experiment [2], 1400 nM; in experiment [4], 100000 nM; in experiment [6], more than 100000 nM.
Take `O=[N+]([O-])c1cccc(-c2[nH]nc3ncnc(Nc4cccc(Cl)c4)c23)c1`: the IC50 in experiment [1] was 270 nM; with Balb/MK it was more than 50000 nM; in experiment [2], 9800 nM; in experiment [3], more than 10000 nM; in experiment [4], more than 100000 nM; in experiment [5], more than 100000 nM. The IC50 in experiment [6] and in experiment [7] was more than 10000 nM throughout.
For `COc1ccc(Nc2[nH]nc3ncnc(Nc4cccc(Cl)c4)c23)cc1`, the IC50 in experiment [1] is 30 nM; in the experiment on Balb/MK, 1030 nM; in experiment [2], more than 10000 nM; in experiment [3], more than 10000 nM; in experiment [4], 5800 nM; in experiment [5] it was 1500 nM. Further, the IC50 in experiment [6] was found to be 19000 nM; in experiment [7], 10000 nM.
`COc1cccc(Nc2[nH]nc3ncnc(Nc4cccc(Cl)c4)c23)c1`: the IC50 in experiment [1] came to 8 nM; in the experiment with Balb/MK, 950 nM; in experiment [2], 7800 nM; in experiment [3] it was 3400 nM; in experiment [4], 4300 nM; in experiment [5], 800 nM. For the same molecule, the IC50 was 4700 nM in experiment [6] and more than 10000 nM in experiment [7].
Consider `Oc1cccc(Nc2[nH]nc3ncnc(Nc4cccc(Cl)c4)c23)c1`, for which the IC50 turned out to be 1 nM in experiment [1]; 460 nM in the experiment on Balb/MK; 220 nM in experiment [2]; 260 nM in experiment [3]; 3000 nM in experiment [4]; 4 nM in experiment [5]. The IC50 in experiment [6] was 560 nM; in experiment [7] it was more than 10000 nM.
Regarding `Clc1cccc(CNc2[nH]nc3ncnc(Nc4cccc(Cl)c4)c23)c1`, the IC50 in experiment [1] was 26 nM; in the experiment with Balb/MK it was 3190 nM; in experiment [2] it was 2090 nM; in experiment [3], more than 10000 nM; in experiment [4], 16000 nM; in experiment [5], 1500 nM. The IC50 in experiment [6] and in experiment [7] was more than 10000 nM in each case.
On to `CC(C)(C)OC(=O)Nc1ccc(-c2[nH]nc3ncnc(Nc4cccc(Cl)c4)c23)cc1`, for which the IC50 in experiment [1] is 270 nM; in the experiment on Balb/MK, 4300 nM; in experiment [2], 9800 nM; in experiment [5], 1500 nM; in experiment [6], more than 10000 nM; in experiment [7], more than 10000 nM.
As for `COc1ccc(CNc2[nH]nc3ncnc(Nc4cccc(Cl)c4)c23)cc1`, the IC50 in experiment [1] was 7 nM; in the experiment with Balb/MK, 860 nM; in experiment [2] it was more than 10000 nM; in experiment [3], more than 10000 nM; in experiment [4], 5000 nM; in experiment [5], 20 nM. In addition, the IC50 was more than 100000 nM in experiment [6] and more than 10000 nM in experiment [7].
`Nc1cccc(-c2[nH]nc3ncnc(Nc4cccc(Cl)c4)c23)c1`: the IC50 in experiment [1] was 5 nM; in the experiment on Balb/MK it was 940 nM; in experiment [2] it was more than 10000 nM; in experiment [3], 3090 nM; in experiment [4], 680 nM; in experiment [5], 800 nM. Besides, the IC50 is 1500 nM in experiment [6] and more than 10000 nM in experiment [7].
Consider `Clc1cccc(Nc2[nH]nc3ncnc(Nc4ccccc4)c23)c1`, for which the IC50 in experiment [1] is 84 nM; in the experiment on Balb/MK, 2560 nM; in experiment [2], 2250 nM; in experiment [3] it was 1360 nM; in experiment [5] it was 1000 nM; in experiment [6], 7800 nM. This molecule gave an IC50 in experiment [7] of more than 10000 nM.
In the case of `Nc1ncnc2c1ncn2-c1ccccc1`, in experiment [1], the IC50 is 15000 nM.
For `Clc1cccc(Nc2[nH]nc3ncnc(Oc4cccc(Cl)c4)c23)c1`, the IC50 in experiment [1] is 24200 nM; in the experiment on Balb/MK, more than 50000 nM; in experiment [2], more than 10000 nM; in experiment [3] it was more than 10000 nM; in experiment [5] it was more than 100000 nM; in experiment [6] it was more than 100000 nM. In addition, the IC50 in experiment [7] is more than 10000 nM.
